Test results as given in patent US12410153B2, “Compounds, compositions and methods” (Avalo Therapeutics, Inc., priority 2014, dated 2025).
Where two headings read alike, the source gives them in different places.

Experiments:
[1] = Acute depression model, forced swim test; type: in vivo, rat; details: male, Sprague-Dawley, rat, plasma, read-out: plasma level at time of sampling
Protocol: (§1) Young, adult, male Sprague-Dawley rats were randomly assigned across the treatment groups and were administered vehicle (0.5% MC/0.02% SLS), the reference compound desipramine (20 mg/kg; a tricyclic antidepressant; Sigma, Lot #078K1326) dissolved in sterile water, or crystalline Form II of Compound (I) (0.1, 0.3, 1, 3, 10, and 30 mg/kg) suspended in 0.5% MC/0.02% SLS, twice on Day 1 (after habituation; ˜24 h prior to test, and prior to dark cycle) and once on Day 2 (30 min pre-test for desipramine and 45 min pre-test for Form II and vehicle).
(§2) Each Forced Swim chamber was constructed of clear acrylic (height, 40 cm; diameter, 20.3 cm). Rats were subjected to a pre-dose swim test of one 15-min session in cylinders containing water at 23° C.±1° C., followed approximately 24 h later by the experimental 5-min session. The water level was 16 cm deep during habituation and 30 cm deep during the test. Immobility, climbing, and swimming behaviors were recorded every 5 s for a total of 60 counts per subject. When an animal was unable to maintain a posture with its nose above water, it was immediately removed from the water and eliminated from the study. Blood was collected at the completion of swim test procedures and plasma was analyzed for Form II concentrations.

Sprague-Dawley rats = experiment: Acute depression model, forced swim test; type: in vivo, rat; details: for RO: corresponding to plasma level; for ED50: Rattus norvegicus
Protocol: as §1, §2

dogs = experiment: Cardiovascular safety in anesthetized dogs, continuous IV infusion 90 min; type: in vivo, dog; details: escalating IV infusion rates
Protocol: (§3) The potential effects of Form II of Compound (I) on the functions of the nervous system, cardiovascular system, and respiratory system were evaluated in a battery of safety pharmacology studies that included an in vitro human ether-a-go-go-related gene (hERG) assay and in vivo studies in rats, dogs, and monkeys. CNS effects were tested in rats at single doses at 15, 75, and 225 mg/kg.
(§4) Effects of Form II on the cardiovascular system were tested in several studies. Potential QTc effects were tested in vitro and in vivo.
(§5) Hemodynamic effects were tested in dogs and monkeys. […] However, Form II did produce dose-independent increases in systolic (12-15 mm Hg), diastolic (7-10 mm Hg), and mean arterial pressures (9-12 mm Hg) in conscious, chair-restrained monkeys given single oral doses at 15, 75, or 150 mg/kg and monitored for 6 h post-dose.

[2] = as above; type: in vivo, dog; details: dog, plasma, escalating IV infusion rates, read-out: plasma concentration at the end of infusion
Protocol: as §3, §4, §5

[3] = Single-dose pharmacokinetics in monkeys (oral and IV); type: in vivo; details: male, rhesus monkey, plasma
Protocol: Male Sprague-Dawley rats (N=8; N=4 oral and N=4 intravenous [IV]) weighing approximately 250-280 g and male rhesus monkeys (N=4, crossover) weighing 6.0-8.8 kg were used for the PK studies. In rats, the IV dose of crystalline Form II of Compound (I) at 2 mg/kg (0.4 mL/kg) was administered as a bolus and the oral dose was administered by gavage at 15 mg/kg (5 mL/kg). In monkeys, the IV dose of Form II at 2 mg/kg (0.1 mL/kg) was administered as a slow bolus and the oral dose was administered via nasogastric tube at 15 mg/kg (5 mL/kg). Blood samples were serially collected pre-dose, and at 0.083 (IV only), 0.25, 0.50, 1, 2, 4, 6, 8, 10, 24, 48, 72, and 96 h post-dose. The concentrations of Form II in rat and monkey plasma were determined by LC/MS/MS analysis in the positive ion mode using a heated nebulizer interface. The lower limit of quantitation was 2.5 ng/mL (approximately 0.00697 μM).

[4] = rhesus, PO 15 mg/kg, mean (S.D.)

Cc1ccc(COC(=O)N2CC[C@H](CNc3ncccn3)[C@H](F)C2)cc1 [Form II, 4-methylbenzyl (3S, 4R)-3-fluoro-4-[(pyrimidin-2-ylamino)methyl] piperidine-1-carboxylate] showed a concentration at 50 min ([1]; 0.1 mg/kg) of roughly 0.015 µM, a concentration at 50 min ([1]; 0.3 mg/kg) of roughly 0.12 µM and a concentration at 50 min ([1]; 1 mg/kg) of roughly 0.39 µM. It also gave a concentration at 50 min ([1]; 3 mg/kg) of roughly 1.42 µM, a concentration at 50 min ([1]; 10 mg/kg) of roughly 4.7 µM and a concentration at 50 min ([1]; 30 mg/kg) of roughly 14.1 µM. The RO (Sprague-Dawley rats; 0.1 mg/kg) was “approximately 5%”, the RO (Sprague-Dawley rats; 0.3 mg/kg) was roughly 29% and the RO (Sprague-Dawley rats; 1 mg/kg) was roughly 56%. It also gave an RO (Sprague-Dawley rats; 3 mg/kg) of roughly 83%, an RO (Sprague-Dawley rats; 10 mg/kg) of roughly 94% and an RO (Sprague-Dawley rats; 30 mg/kg) of roughly 98%. The climbing behavior (Sprague-Dawley rats; 1, 3, 10, and 30 mg/kg vs vehicle) was “did not affect climbing behavior except at the dose of 3 mg/kg”, the immobility frequency (Sprague-Dawley rats; 1, 3, 10, and 30 mg/kg vs vehicle, P<0.001) was “significantly decreased” and the swimming behavior (Sprague-Dawley rats; 1, 3, 10, and 30 mg/kg vs vehicle, P<0.01 (P<0.05 for 10 mg/kg)) was “significantly increased”. The ED50 (Sprague-Dawley rats; read-out: ED50 for decrease in immobility) was roughly 0.7 mg/kg, the ED50 (Sprague-Dawley rats; read-out: ED50 for increase in frequency of swimming) was roughly 0.3 mg/kg and the “RO corresponding to ED50 for immobility” value (Sprague-Dawley rats; rat, in vivo) was roughly 50%. The “RO corresponding to ED50 for swimming” value (Sprague-Dawley rats; rat, in vivo) was roughly 30%, the “heart rate, arterial blood pressure, femoral blood flow” value (dogs) was “did not affect” and the “heart rhythm and ECG parameters incl. QTc interval” value (dogs) was “did not affect”. It also gave a concentration at 90 min [2] of roughly 74 µM, a bioavailability ([3]; 15 mg/kg, dose-normalized AUC0-∞ after IV and PO, crossover) of 50% and a Tmax ([3]; po, 15 mg/kg, PO 15 mg/kg, mean (S.D.)) of roughly 2 h. The half-life ([3]; IV 2 mg/kg, mean (S.D.)) was 4.2 h, the clearance ([3]; IV 2 mg/kg, mean (S.D.), read-out: CLp) was 0.906 L/h/kg and the Vd ([3]; IV 2 mg/kg, mean (S.D.), read-out: Vdss) was 2.9 L/kg. It also gave an AUC(0-inf) ([3]; rhesus, IV 2 mg/kg, mean (S.D.)) of 6.67 µM·h, an AUC(0-inf) [3, 4] of 25.1 µM·h and a Cmax [3, 4] of 3.6 µM.
